Assays:
[1] = tested on: Erysiphe cichoracearum; experiment: Powdery mildew of cucumber, systemic root uptake (CMS); assay type: in vivo; conditions: 45 ml of 250 mg/l, 8 days after inoculation
Experimental: Compositions containing Compounds Nos. 1-81 were prepared by dissolving 0.24 grams of each of the compounds in 8 ml of acetone or other suitable inert solvent. Each of the resultant solutions was treated with 3 drops of TWEEN 20 (ethoxylated ethylene sorbitan monolaurate, a non-ionic surfactant)(I.C.I.), and water was added to form an emulsion. The degree of dilution with water was dictated by the desired concentration of the compound in the composition. The greater the quantity of water added, the lower the concentration of the compound in the composition, reported in milligrams per liter (mg/l) […] Upon reaching these ages, the plants were either treated with 45 ml of 250 mg/l concentration of the compositions of Example 9 or were left untreated. The untreated plants were used as controls. The 45 ml compositions saturated the soil of the treated pots without significant loss through drainage into the saucers below the pots. Twenty-four hours after the treatment with the compositions, both the barley and cucumber plants in all the pots, those treated and those untreated, were inoculated with powdery mildew fungus. This was accomplished by tapping leaves of previously infected barley and cucumber plants over the treated and untreated pots containing the barley and cucumber plants, respectively, to distribute spores of the fungus over the plants tested. […] Intermediate ratings were assigned depending on the degree of disease. […] The results of the powdery mildew disease control of barley are reported under the heading of "BMS". The results for cucumber mildew control are reported under the heading "CMS".

[2] = tested on: Erysiphe polygoni; experiment: Powdery mildew on pinto bean, foliar application (ERY POL); assay type: in vivo; conditions: Erysiphe polygoni, similar procedure as barley (1,000 mg/l), read-out: Percent Reduction of Disease, ERY POL
Experimental: Compositions containing Compounds Nos. 1-81 were prepared by dissolving 0.24 grams of each of the compounds in 8 ml of acetone or other suitable inert solvent. Each of the resultant solutions was treated with 3 drops of TWEEN 20 (ethoxylated ethylene sorbitan monolaurate, a non-ionic surfactant)(I.C.I.), and water was added to form an emulsion. The degree of dilution with water was dictated by the desired concentration of the compound in the composition. The greater the quantity of water added, the lower the concentration of the compound in the composition, reported in milligrams per liter (mg/l) Ten plants of "Robust" variety barley were planted in each of a plurality of pots. Each pot was then either sprayed with one of the compositions of Example 9, at a composition concentration of 1,000 mg/l, or left unsprayed. For each pot sprayed, one pot was left unsprayed as a control. After the leaves of the sprayed pots were dried, the sprayed pots and the unsprayed control pots were placed in a greenhouse maintained at 21° C. All the pots were then inoculated with barley powdery mildew fungus, Erysiphe graminis. This inoculation was accomplished by distributing spores of the fungus over the leaves of the plants to be tested from plants which had previously been infected with the mildew disease. […] Again, percent control was computed by comparing the treatment scores with the scores of the untreated controls. The results are summarized in Table II under the heading "ERY GRA". Using a similar procedure as described above for the barley, pinto bean plants were prepared, treated and inoculated with the fungus Erysiphe polygoni. The results of this testing are summarized in Table II under the heading "ERY POL".

[3] = tested on: Pyricularia oryzae; experiment: whole plant or invertebrate; assay type: in vivo; conditions: for pest or weed control at 1000 µg/mL: Pyricularia oryzae, in Hordeum vulgare, foliar, 216 h, read-out: Percent Reduction of Disease, PYR ORY, barley, foliar, 1,000 mg/l
[4] = tested on: Helminthosporium sativum; experiment: Barley spot blotch, foliar treatment (HEL SAT); assay type: in vivo; conditions: Helminthosporium, foliar, 216 h, foliar, 1,000 mg/l, read-out: Percent Reduction of Disease, HEL SAT
Experimental: Compositions containing Compounds Nos. 1-81 were prepared by dissolving 0.24 grams of each of the compounds in 8 ml of acetone or other suitable inert solvent. Each of the resultant solutions was treated with 3 drops of TWEEN 20 (ethoxylated ethylene sorbitan monolaurate, a non-ionic surfactant)(I.C.I.), and water was added to form an emulsion. The degree of dilution with water was dictated by the desired concentration of the compound in the composition. The greater the quantity of water added, the lower the concentration of the compound in the composition, reported in milligrams per liter (mg/l) Ten plants of six day-old Barley (variety "Robust") were planted in each of a plurality of pots. Each pot was then either sprayed with one of the compositions of Example 9, at a concentration of 1,000 mg/l, or left unsprayed. The unsprayed plants were used as controls. An equal number of pots were sprayed and unsprayed. All plants, sprayed and unsprayed, were thereafter inoculated with spores of the blotch fungus Helminthosporium sativum. All inoculated plants were placed in a 99% humidity chamber for 24 hours and then placed in a greenhouse, maintained at a temperature of 21° C., for eight days. […] Percent control was computed and the results are summarized in Table II under the heading "HEL SAT".

[5] = tested on: Cercosporidium personatum; experiment: Fungal germination and growth, treated disc on agar, scored (CER PER); assay type: cell-based; parameters: key: 100: Complete inhibition of germination and growth.; 80: Nearly complete inhibition but some growth.; 50: Partial inhibition of growth or, early complete inhibition but later growth begins.; 20: Some inhibition of growth, but not significant.; 0: No inhibition of growth; conditions: disc dipped in 500 mg/l, 29° C., numerical score 0-100, spore suspension
Excerpt: Filter paper discs, each 11 mm. in diameter, were dipped in each of the test solutions. The discs were allowed to air dry to drive off the acetone solvent. A number of untreated discs were used as controls. The treated and untreated discs were then placed on agar plates and one of the following fungus species: Septoria nodorum (SEP NOD), Botrytis cinerea (BOT CIN), Fusarium oxysporum (FUS OXY), Pythium ultimum ([…]), Rhizoctonia solani (RHI SOL), Colletotrichum gossypii (COL GOS), and Scierotinia minor (SCL MIN), was added to the center of each disc in the form of a culture plug with the fungus mat in contact with the paper of the test disc. Cercosporidium personatum (CER PER), was added to discs as a spore suspension (20,000 spores/ml) to the disc (two drops of spore suspension per disc), rather than a mycelial culture plug. The plates were then incubated at 29° C. in an oven. In the case of the Cercosporidium personatum (CER PER) fungi, scoring was done on a numerical basis as follows: 100=Complete inhibition of germination and growth. 80=Nearly complete inhibition but some growth. 50=Partial inhibition of growth or, early complete inhibition but later growth begins. 20=Some inhibition of growth, but not significant. 0=No inhibition of growth. The results of all the above tests appear in Table III below under the headings "SEP NOD," "BOT CIN," "FUS OXY," "[…]" "COL GOS" and "CER PER".

[6] = tested on: Pythium ultimum; experiment: Fungal growth inhibition, treated disc on agar (PYT ULT); assay type: cell-based; conditions: disc dipped in 500 mg/l, 29° C.; for inhibition at 500 µg/mL: Globisporangium ultimum, read-out: Percent Growth Inhibition, PYT ULT
[7] = tested on: Scierotinia minor; experiment: Fungal growth inhibition, treated disc on agar (SCL MIN); assay type: cell-based; conditions: disc dipped in 500 mg/l, 29° C.; for inhibition at 500 µg/mL: read-out: Percent Growth Inhibition, SCL MIN
Experimental: The treated and untreated discs were then placed on agar plates and one of the following fungus species: Septoria nodorum (SEP NOD), Botrytis cinerea (BOT CIN), Fusarium oxysporum (FUS OXY), Pythium ultimum (PYT ULT), Rhizoctonia solani (RHI SOL), Colletotrichum gossypii (COL GOS), and Scierotinia minor (SCL MIN), was added to the center of each disc in the form of a culture plug with the fungus mat in contact with the paper of the test disc. Cercosporidium personatum (CER PER), was added to discs as a spore suspension (20,000 spores/ml) to the disc (two drops of spore suspension per disc), rather than a mycelial culture plug. The plates were then incubated at 29° C. in an oven.
With the exception of the discs containing Cercosporidium personatum, the discs were evaluated by first measuring the radius from the center of the fungus colony on the treated discs and on the untreated discs. Percent growth inhibition of each of the compounds tested was determined as a function of the difference between the radius of the fungus colony on the treated disc versus the radius of the fungus colony on the untreated disc.

[8] = tested on: Colletotrichum gossypii; experiment: Fungal growth inhibition, treated disc on agar (COL GOS); assay type: cell-based; conditions: disc dipped in 500 mg/l, 29° C.; for inhibition at 500 µg/mL: Colletotrichum gossypii, read-out: Percent Growth Inhibition, COL GOS

SMILES	Percent Reduction of Disease, CMS [1] [%]	pest or weed control at 1000 µg/mL [2] [%]	pest or weed control at 1000 µg/mL [3] [%]	pest or weed control at 1000 µg/mL [4] [%]	CER PER inhibition score [5]	inhibition at 500 µg/mL [6] [%]	inhibition at 500 µg/mL [7] [%]	inhibition at 500 µg/mL [8] [%]	Percent Reduction of Disease, PYR ORY ([3]; barley, foliar, 1,000 mg/l) [%]	Percent Growth Inhibition, PYT ULT [6] [%]	Percent Growth Inhibition, SCL MIN [7] [%]	Percent Growth Inhibition, COL GOS [8] [%]
N#CC(CCCF)(CCc1ccc(F)cc1)c1cccnc1 (stereo not shown) [Compound 64]	0	100	20	85	0	0	50	55	–	–	–	–
CC(C)CCC(C#N)(CCc1ccc(F)cc1)c1cccnc1 (stereo not shown) [Compound 49]	0	90	–	100	0	–	–	–	17	76	100	100
C=CCC(C#N)(CCCc1ccccc1OC)c1cccnc1 (stereo not shown) [Compound 70]	0	92	0	100	100	49	100	100	–	–	–	–
N#CC(CCF)(CCc1ccc(F)cc1)c1cccnc1 (stereo not shown) [Compound 53]	0	90	70	90	0	5	100	100	–	–	–	–
CCCCOc1ccc(CCC(C#N)(CCCC)c2cccnc2)cc1 (stereo not shown) [Compound 54]	0	90	90	100	0	5	100	100	–	–	–	–
Cc1ccc(CCC(C#N)(CCCC(F)(F)F)c2cccnc2)cc1 (stereo not shown) [Compound 79]	92	100	11	100	0	0	5	30	–	–	–	–
CC(C)(C)c1ccc(CC(C#N)(Cc2ccc(C(C)(C)C)cc2)c2cccnc2)cc1 [B, reference compound]	50	0	–	0	0	15	60	0	–	–	–	–
